This note sets out measurements from patent US11413278B2, “Compounds and methods for promoting stress resistance” (priority 2015, dated 2022).

Structures are written as SMILES. Where two headings read alike, the source gives them in different places.

Series [1] has as its system WI-38 cells. The series is described as follows: CdCl2 (cadmium) resistance assay. In kind it is cell-based, human. Conditions: for fold induction at 10 µM: Homo sapiens, 12 h, normalized ATP measurement; for Assay 4: H2O2- & Cd-resistant / Assay 2: Cadmium-resistant: YES/NO; for Assay 2: Cadmium-resistant: * indicates partial. Put shortly:
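Resistance to CdCl2 or MMS stress (12 h exposure) was scored in WI-38 fibroblasts pretreated with compound at 0.25–20 μM final, five doses, technical triplicates. MMS plates had compound added 24 h before MMS, after a shift to serum-free DMEM+2% BSA. Significance came from a global variance t-test over two independent runs.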

Series [2] relates to human dermal fibroblast (HDF) primary cells. The experiment in a line: H2O2-resistance in primary human dermal fibroblasts. In kind it is cell-based. To be noted: for fold induction at 10 µM: Homo sapiens; for Assay 6: H2O2-resistant, at 10 uM, human dermal fibroblast (HDF) primary cells: YES/NO.
The subject of a further series is mTOR. The series is described as follows: mTOR inhibition (RPS6 phosphorylation status), In-Cell Western. The format is cell-based, human. Put shortly:
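Read-out is In-Cell Western near-infrared imaging of phospho-RPS6 (Ser-235/236) against total RPS6, using overnight 4° C primary staining and DyLight 680/800 secondaries. Compounds were given to WI-38 cells for 24 hrs at three doses: 5, 10 and 20 μM.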

In series [3] the test system is WI-38 cells. The experiment in a line: Long-term effects on cell viability (5 days, ATP; morphology, PI imaging).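 For Luminescence signal for ATP measurement, day-2 Average: compounds at 10 µM with ATP read daily over 5 days of treatment.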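 For Luminescence signal for ATP measurement, day-3 Average: compounds at 10 µM with ATP read daily over 5 days of treatment.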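 For Luminescence signal for ATP measurement, day-4 Average: compounds at 10 µM with ATP read daily over 5 days of treatment.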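 For Luminescence signal for ATP measurement, day-5 Average: compounds at 10 µM with ATP read daily over 5 days of treatment.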 The format is cell-based. To be noted: 10 μM; for Luminescence signal for ATP measurement, day-1 Average / Luminescence signal for ATP measurement, day-2 Average / Luminescence signal for ATP measurement, day-3 Average / Luminescence signal for ATP measurement, day-4 Average / Luminescence signal for ATP measurement, day-5 Average / viability at 10 µM: Batch 1; for Luminescence signal for ATP measurement, day-1 Average / Luminescence signal for ATP measurement, day-2 Average / Luminescence signal for ATP measurement, day-3 Average / Luminescence signal for ATP measurement, day-4 Average / Luminescence signal for ATP measurement, day-5 Average: n = 6, day-0 luminescence = 320956 ± 24708; for viability at 10 µM: Homo sapiens, WI-38, 120 h, DMSO ctrl = 100.0%, read-out: ATP luminescence by day-5 normalized; for Luminescence signal for ATP measurement, day-5 Average / viability at 10 µM: day-5; for O = Potential toxicity / Q = Potential toxicity: human, 5 days.

The subject of series [4] is WI-38 cells. To be noted: no H2O2 stress, 10 uM; negative control 0.41% ± 0.23%. As to the method:
WI-38 cells were seeded on 384-well plates for 24 hrs and then incubated with small molecules for 24 hrs. […] Images were collected on an INCell Analyzer 2000 (GE) and analyzed with the Developer software.

[5] abbreviates: Exp. 1, WI-38 cells, read-out: Exp. 1, under Cd2Cl2 stress treatment, at 10 uM (fold change).
Setting [6] is: Exp. 2, WI-38 cells, read-out: Exp. 2, under Cd2Cl2 stress treatment, at 10 uM (fold change).
Setting [7] is: score in summary of 38 core set hits.
The mark [8] stands for this setting: Experiment 1, HDF cells, read-out: Experiment 1, HDF cells (under H2O2 stress treatment), at 10 uM (fold change).
[9] abbreviates: Experiment 2, HDF cells, read-out: Experiment 2, HDF cells (under H2O2 stress treatment), at 10 uM (fold change).
Setting [10] is: WI-38 cells, 10 μM, both stressors.

For `COc1ccc(C(=O)/C=C/c2cccc(Cl)c2)c(OC)c1` [Gr-4C], the fold induction at 10 µM in the series on WI-38 cells [1] (setting [5]) turned out to be 1.07. Besides, in the series on WI-38 cells [1] (setting [6]), the fold induction at 10 µM is 1.19. Moreover, in the series on WI-38 cells [1], the “Assay 4: H2O2- & Cd-resistant” value is recorded as “YES” and the “Assay 2: Cadmium-resistant” value was “YES”. Moreover, the “A = Cadmium resistant” value in the series on WI-38 cells [1] (setting [7]) is recorded as 0. Besides, in the series with WI-38 cells [1] (summary score), the “A = Cadmium resistant” value came out at 1 and the “C = H2O2- & Cd-resistant” value came out at 1. In addition, in series [2] (setting [8]), the fold induction at 10 µM was 4.32. Also, in series [2] (setting [9]), the fold induction at 10 µM was 3.15. In series [2], the “Assay 6: H2O2-resistant, at 10 uM, human dermal fibroblast (HDF) primary cells” value (shortened to “Assay 6: H2O2-resistant, at 10 uM”) is given as “YES”. Moreover, the “G = mTOR down-regulation” value in the series on mTOR (2-point score) is reported as 0. For the same molecule, in the series with mTOR (summary score), the “G = mTOR down-regulation” value came out at 0. Also, in the series with WI-38 cells [3], the “Luminescence signal for ATP measurement, day-1 Average” value is 413360; the “Luminescence signal for ATP measurement, day-2 Average” value is listed as 474171; the “Luminescence signal for ATP measurement, day-3 Average” value is 485641; the “Luminescence signal for ATP measurement, day-4 Average” value was 769380. In addition, in the series on WI-38 cells [3], the “Luminescence signal for ATP measurement, day-5 Average” value is recorded as 813018; the viability at 10 µM was 79.2%; the “O = Potential toxicity” value is reported as 0; the “Q = Potential toxicity” value is listed as 0. Besides, the “Percentage of propidium iodide-positive dead cells (no H2O2 stress treatment), at 10 uM” value with WI-38 cells [4] is on record as 0.47% ± 0.20%,.
As to `O=C(/C(=C/c1ccc(Cl)cc1)c1nc2ccccc2[nH]1)c1ccccc1` [Gr-4D], the CdCl2-resistant entry in the series on WI-38 cells [1] is recorded as “YES”; in the series with WI-38 cells [1] (WI-38 cells, 10 μM), “YES”. The “H2O2- & CdCl2-resistant” value with WI-38 cells [1] and in the series with WI-38 cells [1] (setting [10]) was “YES” each time. In addition, the fold induction at 10 µM with WI-38 cells [1] (setting [5]) is 2.1; in the series on WI-38 cells [1] (setting [6]), 2.88; in series [2] (setting [8]) it was 1.06; in series [2] (setting [9]), 2. The “Assay 4: H2O2- & Cd-resistant” value in the series on WI-38 cells [1] is recorded as “YES”. Moreover, in the series with WI-38 cells [1], the “Assay 2: Cadmium-resistant” value is “YES”. In addition, the “A = Cadmium resistant” value with WI-38 cells [1] (setting [7]) and in the series with WI-38 cells [1] (summary score) was 1 in each case. Besides, the “C = H2O2- & Cd-resistant” value in the series with WI-38 cells [1] (summary score) was determined as 1. The “Assay 6: H2O2-resistant, at 10 uM” value in series [2] is “YES”. The “G = mTOR down-regulation” value with mTOR (2-point score) and in the series with mTOR (summary score) was 0 in each case. For the same molecule, in the series on WI-38 cells [3], the “O = Potential toxicity” value was 0. Further, in the series with WI-38 cells [3], the “Q = Potential toxicity” value is recorded as 0. Also, in the series on WI-38 cells [4], the “Percentage of propidium iodide-positive dead cells (no H2O2 stress treatment), at 10 uM” value is listed as 0.42% ± 0.15%,.
`CCc1ccc(Oc2nc3ccccn3c(=O)c2/C=C(\C#N)C(=O)NC2CCCCC2)cc1` [Gr-5A]: in the series on WI-38 cells [1], the CdCl2-resistant result is listed as “YES” and the “H2O2- & CdCl2-resistant” value was “YES”. Moreover, the fold induction at 10 µM in the series with WI-38 cells [1] (setting [5]) turned out to be 4.12. Moreover, the fold induction at 10 µM in the series with WI-38 cells [1] (setting [6]) was 2.4. In the series on WI-38 cells [1] (WI-38 cells, 10 μM), the CdCl2-resistant result was “YES”. Besides, the “H2O2- & CdCl2-resistant” value with WI-38 cells [1] (setting [10]) is “YES”. Also, in the series on WI-38 cells [1] (setting [7]), the “A = Cadmium resistant” value is 1. For the same molecule, in the series with WI-38 cells [1] (summary score), the “A = Cadmium resistant” value was found to be 0 and the “C = H2O2- & Cd-resistant” value is 0. The fold induction at 10 µM in series [2] (setting [8]) was determined as 2.95. For the same molecule, in series [2] (setting [9]), the fold induction at 10 µM is 2. Besides, in series [2], the “Assay 6: H2O2-resistant, at 10 uM” value is “YES”. Besides, in the series on mTOR (2-point score), the “G = mTOR down-regulation” value is on record as 0. Also, the “G = mTOR down-regulation” value in the series on mTOR (summary score) is listed as 0. For the same molecule, in the series on WI-38 cells [3], the “Luminescence signal for ATP measurement, day-1 Average” value was determined as 527000; the “Luminescence signal for ATP measurement, day-2 Average” value turned out to be 728148; the “Luminescence signal for ATP measurement, day-3 Average” value is 837593; the “Luminescence signal for ATP measurement, day-4 Average” value is on record as 1074220. In addition, in the series with WI-38 cells [3], the “Luminescence signal for ATP measurement, day-5 Average” value amounted to 1082445; the viability at 10 µM is 105%; the “O = Potential toxicity” value stood at 0; the “Q = Potential toxicity” value is recorded as 0. Moreover, the “Percentage of propidium iodide-positive dead cells (no H2O2 stress treatment), at 10 uM” value with WI-38 cells [4] is 0.48% ± 0.20%,.
